PubChem BioAssay (NCI)
“And” between values parts separate entries of the source, which are not always exact repeats. Equal entries are not always repeated.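 Test compounds were applied to cells in 96-well plates for 48 hours at 5 doses. Here, GI50 denotes the concentration required for 50% inhibition of growth. At the TGI there is no net growth.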

What was measured:
Assay in all cases: NCI tumour cell line growth inhibition, 48 h
BT-549 breast = system: BT-549 breast
NCI-H226 lung = system: NCI-H226 lung
SK-MEL-28 melanoma = system: SK-MEL-28 melanoma
SW-620 colon = system: SW-620 colon
UACC-62 melanoma = system: UACC-62 melanoma
ACHN renal = system: ACHN renal
HOP-62 NSCLC = system: HOP-62 NSCLC
OVCAR-3 ovarian = system: OVCAR-3 ovarian

SMILES | TGI (BT-549 breast) [µM] | TGI (NCI-H226 lung) [µM] | TGI (SK-MEL-28 melanoma) [µM] | TGI (SW-620 colon) | TGI (UACC-62 melanoma) | TGI (ACHN renal) [µM] | TGI (HOP-62 NSCLC) [µM] | TGI (OVCAR-3 ovarian) | GI50 (BT-549 breast) [µM] | GI50 (SK-MEL-28 melanoma) [µM] | GI50 (SW-620 colon) [µM] | GI50 (UACC-62 melanoma) [µM] | GI50 (ACHN renal) [µM] | GI50 (OVCAR-3 ovarian) | GI50 (NCI-H226 lung) [µM] | GI50 (HOP-62 NSCLC) [µM]
OC(C1=C/C(=C\c2ccncc2)c2ccccc21)c1ccncc1 (stereo not drawn) | 57.9 | 31.1 | 34.6 | > 94.3 µM | 24 µM | 53.4 | 31.6 | 31.7 µM |  |  |  |  |  |  |  | 
c1cc2c(cc1C(N1CCNCC1)N1CCNCC1)OCO2 | > 100 | > 100 | > 100 | > 100 µM | > 100 µM | > 100 | > 100 | > 100 µM |  |  |  |  |  |  |  | 
Nc1nc(Nc2ccc3c(c2)CC[C@@H](N2CCCC2)CC3)nn1-c1cc2c(nn1)-c1ccccc1CCC2 | 3.36 |  | 3.27 | 3.44 µM | 3.67 µM | 2.11 |  | 3.36 µM | 1.6 | 1.77 | 1.7 | 1.89 | 0.878 | 1.74 µM |  | 
O=C(NC1CC1)c1ccc(-c2nc3ccc4[nH]ncc4c3c3c2CCCC3)cc1 | 7.69 | 47.6 | 12.1 | 10.3 µM | 9.77 µM | > 50 | 24.8 | 15.8 µM | 1.51 | 2.3 | 1.41 | 2.19 | 1.03 | 4.04 µM | 3.41 | 1.25
CCN1C(=O)N(CC)C2C1NN=c1s/c(=C3\C(=O)N(CC(C)C)c4ccccc43)c(=O)n12 (stereo not drawn) | > 100 | > 100 | > 100 | > 100 µM | 65.5 µM | > 45 | 34.8 | 0.799 µM | 2.45 | 3.28 | 0.444 | 0.603 | 0.723 | 0.284 µM | 2.39 | 0.797
O=C(c1cc(F)c(Cl)cc1Cl)N1N=C(c2ccccc2)CC1(O)c1ccccc1 (stereo not drawn) | 40.5 | 36.5 | 31.6 | 36.9 µM | 23.9 µM | 59.4 | 27.6 | 59.5 µM | 17.7 | 16.2 | 18.9 | 11.1 | 23 | 18.9 µM | 17.3 | 13.7
Fc1ccc(Oc2nccc(-c3c(-c4ccc(F)cc4)ncn3C3CCNCC3)n2)cc1 | > 25 |  | > 25 | > 25 µM | > 25 µM | > 25 | > 25 | > 25 µM | > 25 | > 25 | > 25 | > 20.8 | > 25 | > 25 µM |  | > 25
N#Cc1ccccc1NC(=O)/C(=N\NC(=O)c1ccncc1)C(c1cnc2ccc([N+](=O)[O-])cc2n1)[N+](=O)[O-] (stereo not drawn) | > 100 | > 100 | > 100 | > 100 µM | > 100 µM | > 100 | > 100 | > 100 µM |  |  |  |  |  |  |  | 
c1ccc(C(=NNc2nc3ccccc3o2)c2ccccn2)nc1 |  |  | 48.6 | 39.8 µM and 19.1 µM | 0.756 µM and 0.413 µM |  |  | 14.5 µM and 16.9 µM | 0.153 | 0.124 | 0.0524 | 0.0863 | 0.0395 | < 0.0218 µM and 0.035 µM | 0.0628 | 0.0532
CCC1=C[C@@H]2CN(C1)Cc1c([nH]c3ccccc13)[C@@](C(=O)OC)(c1cc3c(cc1OC)N(C=O)[C@H]1[C@@](O)(C(=O)OC)[C@H](OC(C)=O)[C@]4(CC)[C@@H]5C[C@@H]5CN5CC[C@]31[C@@H]54)C2 | 0.211 | > 6.25 | > 6.25 | > 6.25 µM | > 6.25 µM | > 6.25 | > 6.25 |  | 0.00166 | 0.0014 | 0.000656 | < 0.000625 | 0.0315 | < 0.000625 µM |  | 0.00158
C/C=C(\C)C(=O)N[C@H]1[C@@H](OC(C)=O)C[C@]2(C)C3CC[C@@]4(C)C(CC[C@@H]4C(C)N(C)C)C3CCC2[C@H]1O (stereo partly drawn) | 21.6 | 22 | 3.67 | 9.44 µM | 4.13 µM | 17.9 | 9.29 | 19.1 µM | 4.81 | 1.83 | 2.63 | 1.91 | 5.74 | 5.56 µM | 5.53 | 3.42
N=C1c2nc3n(c2C(=O)c2nc4n(c21)CCCC4)CCCC3 | 4.94 | 3.38 | 3.7 | 24.4 µM | 2.04 µM | > 100 | 3.54 | > 100 µM | 2.22 | 1.84 | 3.8 | 0.784 | 20.5 | 27.1 µM | 1.08 | 0.921
COc1ccc(/C=C2\CN(C(=O)C(Cl)Cl)C/C(=C\c3ccc(OC)c(OC)c3)C2=O)cc1OC | 2.98 | 1.72 |  |  | 0.549 µM | 0.381 |  |  | 0.535 |  |  | 0.185 | 0.165 |  | 0.43 | 0.883
CCOC(=O)CCCn1c(SC)nc2cc(-c3ccco3)[nH]c2c1=O |  | > 100 | > 100 | > 100 µM | 68.3 µM | > 100 | > 100 | > 100 µM |  | > 100 | > 100 | 22.5 | 31.7 | 48.2 µM | > 100 | 37
COc1cc(NC(=O)c2cc(OC)c3ccn(C)c3c2)cc2c1C[C@]1(C)CC[C@@H](O)C(C)(C)[C@H]1O2 | > 100 | > 100 | > 100 | > 100 µM | 49.6 µM | > 100 | > 100 | > 100 µM | 2.98 | 5.29 | 11.2 | 4.31 | 5.31 | 12.6 µM | 26.5 | 8.78
N#CC1=C(N)OC2=C(COc3ccc(F)cc32)C1c1ccc(Cl)cc1 (stereo not drawn) | 73.5 |  |  | > 100 µM | 42.6 µM | 93.5 | > 100 | 42.3 µM | 27.3 |  | 53.3 | 18.5 | 22.9 | 17.2 µM |  | 38.3
COC(=O)COc1ccc(/C=C2\N=C(c3ccccc3)N(c3cc(C(F)(F)F)ccc3Cl)C2=O)cc1 | 94.2 | > 100 | > 100 | > 100 µM | > 100 µM | > 100 | > 100 | 96.8 µM | 28.1 | > 100 | 62.1 | > 100 | > 100 | 26.1 µM | 52.2 | 64.9
